Like-named read-outs stand apart in the source and are kept apart here.
Legend:
[1] = molecular target: EZH2 (Y641F) (Homo sapiens (Human), UniProt Q15910, Y641F); experiment: Test on EZH2 (Y641F) inhibitory activity; type: biochemical
Procedure: (§1) Compounds at different concentrations were dissolved in 100% DMSO and transferred to test plates, and the final concentration of DMSO was 1%. Enzyme solution and substrate SAM solution were prepared with 1-fold reaction buffer (optimized Tris buffer). 5 uL of enzyme solution was added to the test plate and wells only added with 5 uL of reaction buffer were used as negative control wells. After incubation at room temperature for 15 min, the plate was added with 5 uL of substrate solution per well to initiate the reaction, and then incubated at room temperature for 60 min. 5 uL of receptor solution was added and the plate was incubated away from light at room temperature for 60 min. 10 uL of donor solution was added and the plate was incubated away from light at room temperature for 30 min. The endpoint values were read on the Envision and the IC50 was calculated.
(§2) Data were fitted by GraphPad Prism 5 software and inhibition rate was calculated according to equation (1) Inh %=(Max−Signal)/(Max−Min)×100 (1)
(§3) IC50 was calculated using equation (2) Y=Bottom+(Top−Bottom)/(1+10^((Log IC50−X)×Hill Slope))
(§4) Y: inhibition rate; X: concentration of the compound

[2] = system: subcutaneous xenograft tumor model of human B lymphocyte Pfeiffer; experiment: In vivo efficacy in subcutaneous xenograft tumor model of human B lymphocyte Pfeiffer; design: species or system mouse; settings: SCID Beige mice, 100 mg/kg p.o. QD 21 days, tumor volume 21 days after administration
Procedure: Human B lymphocyte strain Pfeiffer was cultured in vitro, in a monolayer way, in a RPMI-1640 medium containing 10% fetal bovine serum, 100 U/mL penicillin and 100 μg/mL streptomycin in an incubator at 37° C./5% CO2. Conventional medium refreshment and subculturing were carried out twice a week, and cells in logarithmic growth phase were collected and used for tumor inoculation after being counted.
Female SCID Beige mice, aged 6-8 weeks and weighed 18-22 g were used in the experiment. The experiment started after 7-day adaptive feed.
Each mouse was inoculated subcutaneously with 10×10^6 Pfeiffer cells in a volume of 0.2 mL in the right side of the neck. The cells were suspended with PBS and matrigel (volume ratio 1:1). After the average tumor volume reached 130 mm^3, the mice were divided into groups with 8 mice per group for administration. The administration volume was 10 uL/g and the dose was 100 mg/kg if there's no special labeling ((p.o. administration, QD, continuous administration for 21 days).
Animal body weights were measured twice weekly and animal mortality and side effects within each group were recorded based on the number of animals in the group.
The experimental indices were to investigate whether tumor growth was inhibited or delayed or the tumor was cured. Tumor diameters were measured twice weekly using a vernier caliper. The tumor volume was calculated according to the following formula: V=0.5 a×b^2, where a and b represent the long diameter and short diameter of the tumor, respectively. The tumor growth inhibitions (TGIs) of the compounds were evaluated by T/C (%). The percentage value of T/C (%) is an index for reflecting the tumor growth inhibition, where T and C represent the average tumor volume of the administration group and the control group, respectively, at a certain day.
The tumor growth inhibition rate was calculated according to the following formula: TGI (%)=(1−(Ti−T0)/(Vi−V0))×100, where Ti is the average tumor volume of a certain administration group on a certain day, T0 is the average tumor volume of the administration group at the start of administration, Vi is the average tumor volume of the vehicle control group on a certain day (same day as Ti) and V0 is the average tumor volume of the vehicle control group at the start of administration.
Relative tumor volumes at each time point for each group were statistically analyzed and differences among groups were assessed based on the data. The statistical method used for testing was one-way ANOVA.

[3] = molecular target: EZH2 (Y641N) (Homo sapiens (Human), UniProt Q15910, Y641N); experiment: Test on EZH2 (Y641N) inhibitory activity; type: biochemical
Procedure: as §1, §2, §3, §4

[4] = molecular target: EZH2 enzyme complex (Homo sapiens (Human), UniProt Q15910); experiment: Test on EZH2 inhibitory activity (TR-FRET); type: biochemical; settings: EZH2 enzyme complex 25 ng/uL, histone H3 peptide 4 uM, SAM 2 uM, 300 min; read-out: IC50 of EZH2 inhibition
Procedure: • EZH2 enzyme complex: 25 ng/uL • Histone H3 peptide substrate: 4 uM • SAM: 2 uM • Reaction time: 300 min Procedures • 1. Each compound disclosed herein was diluted with 1×HMT buffer and transferred to a 384-well assay plate at 3 uL per well; • 2. The EZH2 enzyme solution was prepared with 1×HMT buffer and transferred to the 384-well assay plate at 2 uL per well; • 3. The above assay plate was incubated for 30 min; • 4. A mixture solution of SAM and histone H3 peptide substrate at 2-fold concentration was prepared with 4×HMT buffer; • 5. 5 uL of the mixture solution of SAM and substrate was added to each well of the assay plate to react at room temperature, and the assay plate was sealed with plastic; • 6. After incubation for 5 h, 10 uL of TR-FRET detection buffer containing Tb-labeled antibody and dye-labeled receptor was added to each well of the assay plate; • 7. After incubation for 1 h at room temperature, the assay plate was detected; • 8.

[5] = system: Pfeiffer cells; experiment: Experiment on Pfeiffer cell proliferation (CellTiter-Glo); type: cell-based, human; settings: Homo sapiens
Procedure: 90 uL of cells were added to each well of a 96-well plate at 12000 cells/well, and cell-free culture medium was added to blank control wells. The plate was incubated overnight in an incubator at 37° C., 5% CO2 and 100% relative humidity. The compounds were diluted from highest to lowest concentration gradient with DMSO to make stock solutions at 400-fold and 10-fold concentration. 10 μL of 10× compound working solution was added to the cell culture plate, and the total concentration of the compound was detected from 10 μM, 9 concentration points in total, and 3-fold serial dilution was performed. 10 μL of DMSO-cell culture medium mixture solution was added to the vehicle control wells and blank control wells. The final concentration of DMSO was 0.25%. The plate was put back in the incubator for another 7 days of culturing.
The cell culture plate cultured for 7 days was taken out of the incubator, and the suspended cells in the 96-well plate were mixed well by pipetting multiple times. 74 uL of fresh cell culture medium was added to a new 96-well plate, and 16 uL of cell suspension was pipetted from the 96-well plate with cells mixed well by pipetting into the new 96-well plate to bring the total volume to 90 uL. Cells in the new 96-well plate were treated with the compound. The new 96-well plate was put back in the incubator for another 7 days of culturing, and then cell viability was detected directly.
84 μL of cell suspension was taken from the cell culture plate for cell viability detection.
CellTiter-Glo buffer and substrate were thawed and balanced to room temperature. The CellTiter-Glo buffer was added to a bottle of CellTiter-Glo substrate to dissolve the substrate, thereby preparing CellTiter-Glo working solution. The bottle was subjected to slow vortex shaking to completely dissolve the substrate. The cell culture plate was taken out and balanced to room temperature for 30 min. 50 μL of CellTiter-Glo working solution was added to each well. The cell plate was wrapped with aluminum foil to keep out of light. The plate was shaken on an orbital shaker for 2 min to induce cell lysis. The plate was placed at room temperature for 10 min to stabilize the luminescence signals. The luminescence signals were detected on 2104 En Vision plate reader.
Inhibition rates of compounds at different concentrations were calculated in Excel, followed by plotting the inhibition curves and calculating relevant parameters including minimum (%), maximum (%), and absolute IC50 using GraphPad Prism software.

[6] = molecular target: EZH2 (wt) (Homo sapiens (Human), UniProt Q15910); experiment: Test on EZH2 (wt) inhibitory activity ([3H]-SAM Flashplate); type: biochemical
Sequence of EZH2 (wt) (Q15910 whole entry): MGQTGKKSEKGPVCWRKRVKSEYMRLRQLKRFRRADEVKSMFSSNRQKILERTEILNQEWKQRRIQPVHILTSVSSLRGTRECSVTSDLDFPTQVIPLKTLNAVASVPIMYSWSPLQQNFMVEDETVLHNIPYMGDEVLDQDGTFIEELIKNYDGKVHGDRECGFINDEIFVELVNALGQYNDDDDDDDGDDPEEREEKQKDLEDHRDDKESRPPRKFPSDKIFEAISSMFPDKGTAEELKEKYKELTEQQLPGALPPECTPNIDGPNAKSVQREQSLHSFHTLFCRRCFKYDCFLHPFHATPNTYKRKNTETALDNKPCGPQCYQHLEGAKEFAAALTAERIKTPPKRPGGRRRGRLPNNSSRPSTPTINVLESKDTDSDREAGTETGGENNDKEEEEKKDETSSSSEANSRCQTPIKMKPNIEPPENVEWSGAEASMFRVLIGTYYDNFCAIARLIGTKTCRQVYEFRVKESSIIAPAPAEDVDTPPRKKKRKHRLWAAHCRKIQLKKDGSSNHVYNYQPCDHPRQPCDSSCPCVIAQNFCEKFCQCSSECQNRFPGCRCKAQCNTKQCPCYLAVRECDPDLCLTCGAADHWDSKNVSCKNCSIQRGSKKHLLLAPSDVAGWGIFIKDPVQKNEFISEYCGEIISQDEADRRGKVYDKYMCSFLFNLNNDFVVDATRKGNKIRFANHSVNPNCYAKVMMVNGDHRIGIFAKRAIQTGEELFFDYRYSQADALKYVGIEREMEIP
Sequence of EZH2 (wt) (O75530 whole entry partner): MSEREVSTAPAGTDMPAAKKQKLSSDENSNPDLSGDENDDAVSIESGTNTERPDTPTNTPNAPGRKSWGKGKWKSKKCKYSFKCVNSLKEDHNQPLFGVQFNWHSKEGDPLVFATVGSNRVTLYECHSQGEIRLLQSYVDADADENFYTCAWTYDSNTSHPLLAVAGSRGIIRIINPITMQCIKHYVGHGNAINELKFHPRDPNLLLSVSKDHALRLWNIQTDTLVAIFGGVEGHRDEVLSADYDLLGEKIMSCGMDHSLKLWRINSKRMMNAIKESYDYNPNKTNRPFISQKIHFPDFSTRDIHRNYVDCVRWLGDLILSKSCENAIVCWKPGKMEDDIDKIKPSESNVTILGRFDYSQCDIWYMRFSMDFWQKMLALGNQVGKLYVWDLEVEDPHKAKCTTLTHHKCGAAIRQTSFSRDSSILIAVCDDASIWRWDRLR
Sequence of EZH2 (wt) (Q15022 whole entry partner): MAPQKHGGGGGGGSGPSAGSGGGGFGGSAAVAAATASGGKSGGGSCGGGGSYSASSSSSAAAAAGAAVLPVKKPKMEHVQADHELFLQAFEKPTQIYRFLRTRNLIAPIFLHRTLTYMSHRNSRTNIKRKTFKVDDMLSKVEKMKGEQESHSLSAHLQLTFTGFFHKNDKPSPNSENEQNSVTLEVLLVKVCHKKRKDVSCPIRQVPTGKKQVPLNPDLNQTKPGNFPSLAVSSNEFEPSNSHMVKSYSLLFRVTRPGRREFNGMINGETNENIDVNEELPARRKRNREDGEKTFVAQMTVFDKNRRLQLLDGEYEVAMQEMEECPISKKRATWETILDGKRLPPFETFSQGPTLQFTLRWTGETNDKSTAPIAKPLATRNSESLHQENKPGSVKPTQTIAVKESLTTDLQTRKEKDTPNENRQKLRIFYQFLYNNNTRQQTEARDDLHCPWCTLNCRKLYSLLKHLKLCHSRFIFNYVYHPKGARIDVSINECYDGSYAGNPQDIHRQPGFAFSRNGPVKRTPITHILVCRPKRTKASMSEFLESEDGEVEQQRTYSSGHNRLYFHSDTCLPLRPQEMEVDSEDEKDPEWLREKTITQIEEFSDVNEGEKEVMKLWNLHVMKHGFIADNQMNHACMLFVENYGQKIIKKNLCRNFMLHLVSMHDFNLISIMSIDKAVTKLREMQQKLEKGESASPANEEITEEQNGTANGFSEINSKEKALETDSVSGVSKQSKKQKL
Procedure: Protocols Compounds at different concentrations were dissolved in 100% DMSO and transferred to test plates, and the final concentration of DMSO was 1%. The enzyme solution and the mixture solution of peptide and [3H]-SAM were prepared with 1-fold reaction buffer. 10 uL of enzyme solution was added to the test plate and wells only added with 10 uL of reaction buffer were used as negative control wells. After incubation at room temperature for 15 min, the plate was added with 10 uL of the mixture solution of peptide and [3H]-SAM per well to initiate the reaction which lasts for 60 min at room temperature. The pre-cooled SAM was added to 1-fold reaction buffer to prepare a stop buffer. The reaction was stopped by adding 10 uL of stop buffer per well. 25 uL of solution was transferred from the reaction plate to Flashplate and incubated at room temperature for at least 1 h. The Flashplate was washed 3 times with dH2O+0.1% Tween-20. The plate was read by Microbeta.
as §2, §3, §4

Sequence of EZH2 (Y641F) (Q15910 whole entry Y641F): as the sequence (Q15910 whole entry) above, with Y641F counted along it
Sequence of EZH2 (Y641F) (O75530 whole entry partner): as the sequence (O75530 whole entry partner) above
Sequence of EZH2 (Y641F) (Q15022 whole entry partner): as the sequence (Q15022 whole entry partner) above
Sequence of EZH2 (Y641N) (Q15910 whole entry Y641N): as the sequence (Q15910 whole entry) above, with Y641N counted along it
Sequence of EZH2 (Y641N) (O75530 whole entry partner): as the sequence (O75530 whole entry partner) above
Sequence of EZH2 (Y641N) (Q15022 whole entry partner): as the sequence (Q15022 whole entry partner) above
Sequence of EZH2 enzyme complex (Q15910 whole entry): as the sequence (Q15910 whole entry) above
Sequence of EZH2 enzyme complex (O75530 whole entry partner): as the sequence (O75530 whole entry partner) above
Sequence of EZH2 enzyme complex (Q15022 whole entry partner): as the sequence (Q15022 whole entry partner) above

How did the IC50 [1] turn out when `CCN(c1cc(O[C@H]2C[C@H](N3C[C@@H](C)O[C@@H](C)C3)C2)cc(C(=O)NCc2c(C)cc(C)[nH]c2=O)c1C)C1CCC(F)(F)CC1` [Example 45, 3-((4,4-difluorocyclohexyl)(ethyl)amino)-N-((4,6-dimethyl-2-oxo-1,2-dihydropyridin-3-yl)methyl)-5-(trans-3-(cis-2,6-dimethylmorpholinyl)cyclobutoxy)-2-methylbenzamide] was run?
The IC50 was 3 nM.

What about the TGI [2] of the same compound?
The TGI was 66.20%.

What about the IC50 [3] of the same compound?
Its IC50 is 5.2 nM.

And the IC50 [4]?
Its IC50 is 10 to 100 nM.

What about the IC50 ([5]; 168 h, Day 7, read-out: IC50 Pfeiffer proliferation Day 7) of the same compound?
The IC50 was 69 nM.

What about the IC50 ([5]; 336 h, Day 14, read-out: IC50 Pfeiffer proliferation Day 14) of the same compound?
The IC50 was 9.7 nM.

And the IC50 [6]?
The IC50 was 2.3 nM.

Reference: patent US12390472B2 (SUZHOU SINOVENT PHARMACEUTICALS CO., LTD., priority 2018, dated 2025)
